In data set [1] the test system is neurons of hippocampal CA1 region. The data set can be described thus: Neuronal survival 14 days after 10 minute ischemia, postischemic ADAC. Format: in vivo, gerbil. The settings on record: control 25±3%. Here is the method: At the end of the survival monitoring period (14 days), control and drug treated survivors were heavily anesthetized with Nembutal (60 mg/kg, intraperitoneally), and perfused with phosphate buffered (pH 7.4) 3.5% formaldehyde as described previously (Lin et al., Neurosci., 2, 289 (1990). The sections were stained with the method of Nissl, and the extent of the neuronal loss in the hippocampal region was investigated according to a standard procedure as disclosed in the art (von Lubitz et al., (1992) supra; 1994)supra.

A short description of data set [2]: Cardiovascular effects and body temperature of ADAC in nonischemic (normoxic) gerbils. Format: in vivo, gerbil. The settings on record: for Blood pressure / Cardiac rate: 100 μg/kg ADAC, ± SEM. An excerpt: Blood pressure was monitored using a Harvard Apparatus (South Natick, Mass.) rat tail blood pressure monitor (von Lubitz et al., 1994 supra), while a Silogic EC-60 cardiac and respiratory monitor (Stewartstown, Pa.) was used to measure cardiac rate. EEG clip electrodes were attached to the unshaven loose skin of the armpits and to both thighs saturated with EEG gel.

A short description of data set [3]: Open field locomotor activity in nonischemic gerbils. The data set is classed as in vivo, gerbil. The settings on record: 0.1 mg/kg (100 μg/kg).
Data set [4] has as its system microtubule associated protein 2 (MAP-2). As to the kind of experiment: MAP-2 preservation in CA1 after 10 minute ischemia, postischemic ADAC. Format: in vivo, gerbil. The settings on record: 100 μg/kg at 2, 6 or 12 h postischemia. An excerpt:
Animals were allowed to survive either 2 or 7 days. They were then perfused with a freshly made 3.5 solution of paraformaldehyde in phosphate buffered saline (pH 7.4). After removal, brains were cut at 40 μm, and the sections were stained immunohistochemically with a monoclonal MAP-2 antibody (Sigma) diluted 1:500-1000. Standard peroxidase anti-peroxidase procedure of ABC complex with Vector kit (Hsu et al., 1981) intensified with heavy metal (Adams, 1981) was used. For immunofluorescent studies, the sections were incubated at 4° C. with the primary antibody overnight. Following three 5-10 minute washes, the sections were exposed to the secondary antibodies, i.e., fluorescein isothiocyanate, rhodamine isothiocyanate, and Texas Red conjugated goat anti-mouse IgG. The secondary antibodies were diluted at 1:20-100 in 0.1M phosphate buffer. Qualitative morphological and immunostaining characteristics of the sections were studied using an epifluorescent microscope (Nikon Labophot) equipped with filters (Nikon B2 and Nikon G1B) appropriate for the detection of the secondary antibodies.
Quantitative analysis of MAP-2 presence in the dendritic fields of CA1 was made using a computer image analysis system (Biographics Inc., Winston-Salem, N.C.).

The subject of another data set is brain ischemia. As to the kind of experiment: Comparison of effective neuroprotective concentrations with other A1 agonists. Format: in vivo, gerbil. The settings on record: vs other A1 adenosine receptor agonists examined thus far.
Data set [5] concerns the target Rat A2 adenosine receptor. The data set can be described thus: Affinity for A2 adenosine receptor isolated from rats. Format: binding. The settings on record: rat A2 adenosine receptors; read-out: Ki for Rat A2 Receptors (printed K1). An excerpt: Table 3 below indicates the structure and Ki values for these compounds. Thus, each of these compounds is expected to find utility in the context of the present invention. The five analogues indicated within Table 3 are given for the purposes of illustrating the nature of ADAC-analogues and is not meant to be comprehensive. Additionally, these compounds can be synthesized using a similar approach as the one employed for ADAC. These methods are known in the art. For example, the synthesis of these compounds can be guided by U.S. Pat. No. 5,248,770 or by Jacobson et al., Journal of Medicinal Chemistry, 28, 1341-1346 (1985).

pKi: −log10 of the molar value. Entries after “also recorded” stand apart in the source; their conditions may differ.

The values below come from patent US6316423A, “Method of treating ischemic, hypoxic and anoxic brain damage” (priority 1999, dated 2001).

With `NCCNC(=O)Cc1ccc(NC(=O)Cc2ccc(Nc3ncnc4c3ncn4[C@@H]3O[C@H](CO)[C@@H](O)[C@H]3O)cc2)cc1` [ADAC], the CA1 neuronal preservation in data set [1] (ADAC at 0.5, 2 or 3 hours postischemia) was ~ 75%. In addition, the CA1 neurons surviving result in data set [1] (ADAC at 15 minutes, 6 or 12 hours postischemia) is recorded as “approximately 60%”. Further, the “CA1 neurons still intact” value in data set [1] (ADAC at 1 hour postischemia) is recorded as 88±4%. In data set [2] (5 min post injection), this molecule displayed a Blood pressure of 83 ± 1 mm Hg and a Cardiac rate of 385 ± 6 beats/min. In data set [2] (15 min post injection), this molecule showed a Blood pressure of 81 ± 1 mm Hg and a Cardiac rate of 382 ± 7 beats/min. In data set [2] (30 min post injection), this molecule yielded a Blood pressure of 82 ± 2 mm Hg and a Cardiac rate of 383 ± 8 beats/min. Besides, in data set [2] (60 min post injection), the Blood pressure worked out at 80 ± 2 mm Hg and the Cardiac rate stood at 383 ± 6 beats/min. In data set [2] (100 μg/kg, nonischemic gerbils), the “changes of body temperature” value is listed as “did not cause any significant changes”, the “changes of cardiac rate” value is “did not cause any significant changes” and the “changes of mean arterial blood pressure” value is “did not cause any significant changes”. The “bradycardia, hypotension, or decreased cerebral (cortical) blood flow” value in data set [2] (0.1 mg/kg intraperitoneal, normoxic gerbils, within 120 minutes) was “not accompanied by a statistically significant bradycardia, hypotension, or decreased cerebral (cortical) blood flow”. Besides, the “cardiovascular effects at higher concentrations” value in data set [2] (0.3 mg/kg and beyond, within 30 minutes of administration) is “manifests cardiovascular effects within 30 minutes of administration of 0.3 mg/kg and beyond”. Further, the “behavioral changes by open field locomotor activity testing” value in data set [3] was “does not induce behavioral changes; also recorded: did not induce any behavioral changes”. The “loss of MAP-2 density in CA1” value in data set [4] (2 days after ischemia, control 50% loss) was “no loss”. Moreover, the “decrease of MAP-2 density in CA1” value in data set [4] (7 days after occlusion) is recorded as “approximately 15%”. In addition, in the data set with brain ischemia, the “level of efficacy versus other A1 adenosine receptor agonists” value was “about an order of magnitude better”. In data set [5], the negative-log Ki (pKi) is 6.68.

The term pKi denotes the negative decadic logarithm of the Ki, by convention in mol/L.
